Experimental data as given in BigSolDB 2.1.

For `NC(N)=NCCC[C@H](NC(=O)OCc1ccccc1)C(=O)O`, the solubility (mole fraction) (in 2-butanone, 283.15 K) was 9.88e-05, the solubility (mole fraction) (in 2-butanone, 293.15 K) was 0.000118 and the solubility (mole fraction) (in 2-butanone, 303.15 K) was 0.000136. It also gave a solubility (mole fraction) (in 2-butanone, 313.15 K) of 0.000164, a solubility (mole fraction) (in 2-butanone, 323.15 K) of 0.000196 and a solubility (mole fraction) (in DMF, 283.15 K) of 0.00164. For the same compound, the solubility (mole fraction) (in DMF, 293.15 K) was 0.00346, the solubility (mole fraction) (in DMF, 303.15 K) was 0.00597 and the solubility (mole fraction) (in DMF, 313.15 K) was 0.00993. The solubility (mole fraction) (in DMF, 323.15 K) was 0.0183, the solubility (mole fraction) (in acetone, 283.15 K) was 2.5e-05 and the solubility (mole fraction) (in acetone, 293.15 K) was 4.7e-05. The solubility (mole fraction) (in acetone, 303.15 K) was 5.73e-05, the solubility (mole fraction) (in acetone, 313.15 K) was 6.89e-05 and the solubility (mole fraction) (in acetone, 323.15 K) was 9.91e-05. For the same compound, the solubility (mole fraction) (in acetonitrile, 283.15 K) was 1.5e-05, the solubility (mole fraction) (in acetonitrile, 293.15 K) was 2.71e-05 and the solubility (mole fraction) (in acetonitrile, 303.15 K) was 3.52e-05. For the same compound, the solubility (mole fraction) (in acetonitrile, 313.15 K) was 4.03e-05, the solubility (mole fraction) (in acetonitrile, 323.15 K) was 4.82e-05 and the solubility (mole fraction) (in dichloromethane, 283.15 K) was 8.03e-05. It also gave a solubility (mole fraction) (in dichloromethane, 288.15 K) of 0.000103, a solubility (mole fraction) (in dichloromethane, 293.15 K) of 0.000144 and a solubility (mole fraction) (in dichloromethane, 298.15 K) of 0.000183. It also gave a solubility (mole fraction) (in dichloromethane, 303.15 K) of 0.000233, a solubility (mole fraction) (in ethanol, 283.15 K) of 0.000193 and a solubility (mole fraction) (in ethanol, 293.15 K) of 0.000255. For the same compound, the solubility (mole fraction) (in ethanol, 303.15 K) was 0.000379, the solubility (mole fraction) (in ethanol, 313.15 K) was 0.000558 and the solubility (mole fraction) (in ethanol, 323.15 K) was 0.000898. It also gave a solubility (mole fraction) (in ethyl acetate, 283.15 K) of 4.73e-05, a solubility (mole fraction) (in ethyl acetate, 293.15 K) of 6.24e-05 and a solubility (mole fraction) (in ethyl acetate, 303.15 K) of 7.31e-05. It also gave a solubility (mole fraction) (in ethyl acetate, 313.15 K) of 8.72e-05, a solubility (mole fraction) (in ethyl acetate, 323.15 K) of 9.78e-05 and a solubility (mole fraction) (in isopropanol, 283.15 K) of 7.15e-05. It also gave a solubility (mole fraction) (in isopropanol, 293.15 K) of 0.000127, a solubility (mole fraction) (in isopropanol, 303.15 K) of 0.000163 and a solubility (mole fraction) (in isopropanol, 313.15 K) of 0.000223. For the same compound, the solubility (mole fraction) (in isopropanol, 323.15 K) was 0.000275, the solubility (mole fraction) (in methanol, 283.15 K) was 0.000468 and the solubility (mole fraction) (in methanol, 293.15 K) was 0.000602. It also gave a solubility (mole fraction) (in methanol, 303.15 K) of 0.00107, a solubility (mole fraction) (in methanol, 313.15 K) of 0.00137 and a solubility (mole fraction) (in methanol, 323.15 K) of 0.00207. The solubility (mole fraction) (in n-butanol, 283.15 K) was 6.05e-05, the solubility (mole fraction) (in n-butanol, 293.15 K) was 0.000103 and the solubility (mole fraction) (in n-butanol, 303.15 K) was 0.000141. The solubility (mole fraction) (in n-butanol, 313.15 K) was 0.000178, the solubility (mole fraction) (in n-butanol, 323.15 K) was 0.000239 and the solubility (mole fraction) (in n-hexane, 283.15 K) was 4.3e-05. It also gave a solubility (mole fraction) (in n-hexane, 293.15 K) of 5.7e-05, a solubility (mole fraction) (in n-hexane, 303.15 K) of 7.42e-05 and a solubility (mole fraction) (in n-hexane, 313.15 K) of 8.12e-05. The solubility (mole fraction) (in n-hexane, 323.15 K) was 0.000119, the solubility (mole fraction) (in water, 283.15 K) was 0.000198 and the solubility (mole fraction) (in water, 293.15 K) was 0.000307. It also gave a solubility (mole fraction) (in water, 303.15 K) of 0.000417, a solubility (mole fraction) (in water, 313.15 K) of 0.000663 and a solubility (mole fraction) (in water, 323.15 K) of 0.00104.
